Values quoted from earlier work in US5594133A, “Crystalline acid addition salts of diastereomerically pure 1-(2,2-dimethylpropinonyloxy)-ethyl-3-cephem-4-carboxylate” (Hoechst Aktiengesellschaft, priority 1991, dated 1997).

Experiments:
[1] = T. Nishimura et al., J. Antibiotics XL (1987) 81-90
[2] = EP-A-0 329 008

SMILES	influence of the stereochemistry in the 1-position of the ethyl ester group on enteral absorbability [1]	splitting by endogenous enzymes into the cephalosporin containing the free carboxyl group ([2]; after absorption)	enteral absorption ([2]; various animal species)
CC(OC(=O)OC1CCCCC1)OC(=O)C1=C(CSc2nnnn2CCN(C)C)CS[C@@H]2[C@H](NC(=O)Cc3csc(N)n3)C(=O)N12 (stereo partly drawn) [cefotiam-hexetil]	no influence on enteral absorbability	–	–
COCC1=C(C(=O)OC(C)OC(=O)C(C)(C)C)N2C(=O)C(NC(=O)/C(=N\O)c3csc(N)n3)[C@H]2SC1 (stereo partly drawn) [ester of the formula I, 1-(2,2-dimethylpropionyloxy)-ethyl 7-[2-(2-aminothiazol-4-yl)-2-(Z)-hydroxyimino-acetamido]-3-methoxymethyl-3-cephem-4-carboxylate]	–	split again rapidly and completely	absorbed well enterally
